A word on the chromatographic logP: it is lipophilicity estimated from chromatographic retention. The low end stands for lower lipophilicity, the high end for higher lipophilicity.

Some results are limits rather than exact numbers.

In one series the test system is Venturia inaequalis. In kind it is in vivo. The note with it: 240 h, 100 ppm. The source says: Lösungsmittel: 24,5 Gewichtsteile Aceton 24,5 Gewichtsteile Dimethylacetamid Emulgator : 1 Gewichtsteil Alkyl-Aryl-Polyglykolether Zur […] und Emulgator und verdünnt das Konzentrat mit Wasser auf die gewünschte Konzentration. Zur Prüfung auf protektive Wirksamkeit werden junge Pflanzen mit der Wirkstoffzubereitung in der angegebenen Aufwandmenge besprüht. Nach Antrocknen des Spritzbelages werden die Pflanzen mit einer wäßrigen Konidiensuspension des […] Venturia inaequalis inokuliert und verbleiben dann 1 Tag bei ca. 20°C und 100% relativer Luftfeuchtigkeit in einer Inkubations-kabine. Die Pflanzen werden dann im Gewächshaus bei ca. 21°C und einer relativen Luftfeuchtigkeit von ca. 90% aufgestellt. 10 Tage nach der Inokulation erfolgt die Auswertung. Dabei bedeutet 0% ein Wirkungsgrad, der demjenigen der Kontrolle entspricht, während ein Wirkungsgrad von 100% bedeutet, daß kein Befall beobachtet wird.

For a further series, the system named is Alternaria solani. Kind of series: Alternaria test (tomato) / protective. In kind it is in vivo.
Another series concerns Fusarium proliferatum. Nature of the series: microbe, parasite or virus in culture. The series is classed as cell-based. The note with it: 144 h, read-out: pI50 Wachstum.
Series [1] concerns Fusarium nivale (var.majus). In kind it is in vivo. The note with it: 120 h, 1000 ppm. The source says:
[…]-Dimethylacetamid Emulgator: 1 Gewichtsteil Alkylarylpolyglykolether Zur […] und Emulgator und verdünnt das Konzentrat mit Wasser auf die gewünschte Konzentration. Zur Prüfung auf protektive Wirksamkeit besprüht man junge Pflanzen mit der Wirkstoffzubereitung in der angegebenen Aufwandmenge. Nach Antrocknen des Spritzbelages werden die Pflanzen mit Sporen mit einer Sporensuspension von Fusarium nivale (var.majus) besprüht. Die Pflanzen werden in einer Gewächshauskammer unter […] Inkubationshaube bei 10°C und 100 % relativer Luftfeuchtigkeit gestellt. 5 Tage nach der Inokulation erfolgt die Auswertung. Dabei bedeutet 0 % ein Wirkungsgrad, der demjenigen der Kontrolle entspricht, während ein Wirkungsgrad von 100 % bedeutet, dass kein Befall beobachtet wird.

A further series relates to Fumonisin FB1. Kind of series: Production of fumonisin FB1 by Fusarium proliferatum (microtiter plate, HPLC-MS/MS). The series is classed as cell-based. The note with it: 144 h, read-out: pI50 FB1.
For the next series, the system named is Puccinia recondita. Kind of series: Puccinia test (wheat) / protective. In kind it is in vivo.
The mark [2] stands for this setting: 500ppm active compound, wheat, protective, evaluation 7-9 days after inoculation.

Compound `O=c1[nH]c(Nc2ccccc2)ncc1Br` [IX-1, 2-Anilino-5-brompyrimidin-4(3H)-on] registered a chromatographic logP in “physchem” (pH 2.3) of 1.62.

Turning to `FC(F)CNc1nc(Nc2ccccc2)ncc1Cl` [Verbindung 1, 5-Chlor-N^4-(2,2-difluorethyl)-N^2-phenylpyrimidin-2,4-diamin], the Wirkungsgrad in the series with Venturia inaequalis was ≥ 70%; with Alternaria solani (168 h, 500 ppm), ≥ 70%; in series [1], ≥ 70%. The values for the IC50 in the series on Fusarium proliferatum and with Fumonisin FB1 were 7.94 µM and 3.16 µM, respectively. In the series “physchem” (pH 2.3), this compound came in with a chromatographic logP of 1.89.

For `CC(Nc1nc(Nc2ccccc2)ncc1Cl)C(F)(F)F` (centres unmarked) [Verbindung 2], the chromatographic logP in the series “physchem” (pH 2.3) was found to be 2.87.

Consider `FC(F)(F)CNc1nc(Nc2ccccc2)ncc1Cl` [Verbindung 3, 5-Chlor-N^2-phenyl-N^4-(2,2,2-trifluorethyl)pyrimidin-2,4-diamin], for which the Wirkungsgrad (in the series on Venturia inaequalis; in the series with Puccinia recondita (500 ppm); in series [1]) was ≥ 70% each time. For the same compound, the values for the IC50 in the series with Fusarium proliferatum and with Fumonisin FB1 were 12.6 µM and 2 µM, respectively. The values for the chromatographic logP in “physchem” (pH 2.3) and in the series “physchem” (pH 7.8) were 2.56 and 3.09, respectively.

In the case of `N#Cc1cccc(Nc2ncc(Cl)c(NCC(F)(F)F)n2)c1` [Verbindung 4], the Wirkungsgrad in the series on Alternaria solani (168 h, 500 ppm) was ≥ 70%. The compound further gave a chromatographic logP in “physchem” (pH 2.7) of 2.67.

`COc1cc(Nc2ncc(Cl)c(NCC(F)(F)F)n2)ccc1NC(C)=O` [Verbindung 5]: in the series on Puccinia recondita (500 ppm), the Wirkungsgrad was ≥ 70%. The compound further returned a chromatographic logP in the series “physchem” (pH 2.7) of 1.75.

Take `COc1cccc(Nc2ncc(Cl)c(NCC(F)(F)F)n2)c1` [Verbindung 6]: the IC50 was 3.16 µM in the series on Fusarium proliferatum and 1.58 µM in the series with Fumonisin FB1. Besides, the Wirkungsgrad in the series on Puccinia recondita (500 ppm) is ≥ 70%. Besides, the chromatographic logP in “physchem” (pH 2.7) was 2.55.

In turn, `COc1ccc(Nc2ncc(Cl)c(NCC(F)(F)F)n2)cc1` [Verbindung 7] returned a chromatographic logP in “physchem” (pH 2.7) of 2.06.

`N#Cc1ccc(Nc2ncc(Cl)c(NCC(F)(F)F)n2)cc1` [Verbindung 8] had a chromatographic logP in “physchem” (pH 2.7) of 2.77.

In the case of `FC(F)(F)CNc1nc(Nc2cccc(OC(F)(F)F)c2)ncc1Cl` [Verbindung 9], the chromatographic logP in the series “physchem” (pH 2.7) is 3.72.

`CS(=O)(=O)c1ccc(Nc2ncc(Cl)c(NCC(F)(F)F)n2)cc1` [Verbindung 10] displayed a chromatographic logP in the series “physchem” (pH 2.7) of 2.21.

Compound `CN(C)S(=O)(=O)c1ccc(Nc2ncc(Cl)c(NCC(F)(F)F)n2)cc1` [Verbindung 11] yielded a chromatographic logP in the series “physchem” (pH 2.7) of 2.64.

With `CSc1ccc(Nc2ncc(Cl)c(NCC(F)(F)F)n2)cc1Cl` [Verbindung 12], in “physchem” (pH 2.7), the chromatographic logP turned out to be 3.55.

Consider `CC(=O)Nc1ccc(Nc2ncc(Cl)c(NCC(F)(F)F)n2)cc1` [Verbindung 13], for which the Wirkungsgrad in the series with Puccinia recondita (500 ppm) is reported as ≥ 70%. This compound also had a chromatographic logP in the series “physchem” (pH 2.7) of 1.54.

In turn, `CC(=O)Nc1ccc(Nc2ncc(Cl)c(NCC(F)(F)F)n2)cc1Cl` [Verbindung 14] yielded a chromatographic logP in the series “physchem” (pH 2.7) of 2.04.

With `CCN(C(C)=O)c1ccc(Nc2ncc(Cl)c(NCC(F)(F)F)n2)cc1` [Verbindung 15], the Wirkungsgrad with Alternaria solani (168 h, 500 ppm) is on record as ≥ 70%; in the series with Puccinia recondita (500 ppm), ≥ 70%. In addition, the chromatographic logP in the series “physchem” (pH 2.7) worked out at 2.13.

Take `CC(=O)N(C)c1ccc(Nc2ncc(Cl)c(NCC(F)(F)F)n2)cc1` [Verbindung 16]: the Wirkungsgrad in the series on Alternaria solani (168 h, 500 ppm) was ≥ 70%; in the series on Puccinia recondita (500 ppm) it was ≥ 70%. This compound returned a chromatographic logP in “physchem” (pH 2.7) of 1.92.

`O=C(Nc1ccc(Nc2ncc(Cl)c(NCC(F)(F)F)n2)cc1)C(F)(F)F` [Verbindung 17] showed a chromatographic logP in “physchem” (pH 2.7) of 2.55.

The compound `CC1(C(=O)Nc2ccc(Nc3ncc(Cl)c(NCC(F)(F)F)n3)cc2)CC1` [Verbindung 18] showed a chromatographic logP in the series “physchem” (pH 2.7) of 2.16.

Take `CC(=O)Nc1cccc(Nc2ncc(Cl)c(NCC(F)(F)F)n2)c1` [Verbindung 19]: the Wirkungsgrad with Puccinia recondita (500 ppm) was ≥ 70%. Moreover, in the series “physchem” (pH 2.7), the chromatographic logP stood at 1.66.

Turning to `C=C(C)C(=O)Nc1cccc(Nc2ncc(Cl)c(NCC(F)(F)F)n2)c1` [Verbindung 20], the chromatographic logP in “physchem” (pH 2.7) was 2.16.

As for `CC(C)(C)C(=O)Nc1cccc(Nc2ncc(Cl)c(NCC(F)(F)F)n2)c1` [Verbindung 21], the Wirkungsgrad in the series on Puccinia recondita (500 ppm) is ≥ 70%. The chromatographic logP in the series “physchem” (pH 2.7) came out at 2.51.

The compound `CNC(=O)c1ccc(Nc2ncc(Cl)c(NCC(F)(F)F)n2)cc1` [Verbindung 22] came in with a chromatographic logP in the series “physchem” (pH 2.7) of 1.66.

As to `CNC(=O)c1cccc(Nc2ncc(Cl)c(NCC(F)(F)F)n2)c1` [Verbindung 23], in the series with Puccinia recondita (500 ppm), the Wirkungsgrad is on record as ≥ 70%. The same compound came in with a chromatographic logP in “physchem” (pH 2.7) of 1.66.

`CSc1cccc(Nc2ncc(Cl)c(NCC(F)(F)F)n2)c1` [Verbindung 24]: the IC50 in the series on Fusarium proliferatum was > 50.1 µM; in the series with Fumonisin FB1, 31.6 µM. In addition, the Wirkungsgrad (with Puccinia recondita (500 ppm); in series [1]) was ≥ 70% in each case. In “physchem” (pH 2.7), this compound displayed a chromatographic logP of 3.04.

In the series “physchem” (pH 2.7), `CSc1ccc(Nc2ncc(Cl)c(NCC(F)(F)F)n2)cc1` [Verbindung 25] registered a chromatographic logP of 2.92.

Turning to `O=S(=O)(c1cccc(Nc2ncc(Cl)c(NCC(F)(F)F)n2)c1)N1CCCCC1` [Verbindung 26], the Wirkungsgrad in the series with Puccinia recondita (500 ppm) was ≥ 70%. For the same compound, the chromatographic logP in the series “physchem” (pH 2.7) came to 2.58.

Regarding `CC(C)(C)C(=O)Cc1ccc(Nc2ncc(Cl)c(NCC(F)(F)F)n2)cc1` [Verbindung 27], in the series with Alternaria solani (168 h, 500 ppm), the Wirkungsgrad is recorded as ≥ 70%. Moreover, in the series “physchem” (pH 2.7), the chromatographic logP was determined as 3.17.

The compound `CC(=O)c1ccc(Nc2ncc(Cl)c(NCC(F)(F)F)n2)cc1` [Verbindung 28] showed a chromatographic logP in the series “physchem” (pH 2.7) of 2.51.

Take `CC(=O)c1cccc(Nc2ncc(Cl)c(NCC(F)(F)F)n2)c1` [Verbindung 29]: the figures for the IC50 in the series on Fusarium proliferatum and in the series on Fumonisin FB1 were > 50.1 µM and 10 µM, respectively. In addition, the Wirkungsgrad (with Puccinia recondita (500 ppm); in series [1]) was ≥ 70% each time. The chromatographic logP in the series “physchem” (pH 2.7) worked out at 2.39.

`O=C1NC(=O)C(c2ccc(Nc3ncc(Cl)c(NCC(F)(F)F)n3)cc2)N1` (centres unmarked) [Verbindung 30]: in the series “physchem” (pH 2.7), the chromatographic logP was found to be 1.47.

`COC(=O)Nc1ccc(Nc2ncc(Cl)c(NCC(F)(F)F)n2)cc1` [Verbindung 31]: the chromatographic logP in the series “physchem” (pH 2.7) came to 1.85.

`CCOC(=O)Nc1ccc(Nc2ncc(Cl)c(NCC(F)(F)F)n2)cc1` [Verbindung 32] came in with a chromatographic logP in “physchem” (pH 2.7) of 2.11.

The compound `CCOC(=O)Nc1cccc(Nc2ncc(Cl)c(NCC(F)(F)F)n2)c1` [Verbindung 33] had a chromatographic logP in “physchem” (pH 2.7) of 2.36.

In the case of `COC(=O)Nc1cccc(Nc2ncc(Cl)c(NCC(F)(F)F)n2)c1` [Verbindung 35], the results for the IC50 in the series with Fusarium proliferatum and in the series on Fumonisin FB1 were 39.8 µM and 31.6 µM, respectively. For the same compound, the Wirkungsgrad in the series with Puccinia recondita (500 ppm) is recorded as ≥ 70%. In the series “physchem” (pH 2.7), this compound displayed a chromatographic logP of 2.06.

As for `CC(C)(CF)C(=O)Nc1cccc(Nc2ncc(Cl)c(NCC(F)(F)F)n2)c1` [Verbindung 37], the Wirkungsgrad in the series on Puccinia recondita (500 ppm) is ≥ 70%. Further, the chromatographic logP in “physchem” (pH 2.7) was found to be 2.42.

For `CC(=O)Nc1cc(Nc2ncc(Cl)c(NCC(F)(F)F)n2)ccc1C` [Verbindung 38], the Wirkungsgrad with Puccinia recondita (500 ppm) is recorded as ≥ 70%. Moreover, in “physchem” (pH 2.7), the chromatographic logP was 1.61.

Take `COc1cccc(Nc2ncc(Cl)c(NCC(F)F)n2)c1` [Verbindung 39]: the results for the IC50 in the series on Fusarium proliferatum and with Fumonisin FB1 were 10 µM and 3.16 µM, respectively. Further, the chromatographic logP in the series “physchem” (pH 2.7) worked out at 1.96.

On to `CN(C)C(=O)c1ccc(Nc2ncc(Cl)c(NCC(F)F)n2)cc1` [Verbindung 40], for which the Wirkungsgrad with Puccinia recondita (500 ppm) was ≥ 70%. The compound further registered a chromatographic logP in the series “physchem” (pH 2.7) of 1.55.

For `C=CCNC(=O)c1ccc(Nc2ncc(Cl)c(NCC(F)F)n2)cc1` [Verbindung 41], in the series with Puccinia recondita (500 ppm), the Wirkungsgrad is ≥ 70%. Besides, the chromatographic logP in “physchem” (pH 2.7) was 1.84.

As for `CC(CC(F)(F)F)Nc1nc(Nc2ccccc2)ncc1Br` (centres unmarked) [Verbindung 42, 5-Brom-N^2-phenyl-N^4-(4,4,4-trifluorbutan-2-yl)pyrimidin-2,4-diamin], the chromatographic logP in “physchem” (pH 2.7) was 2.4.

For `Cc1cccc(Nc2ncc(Cl)c(NCC(F)(F)F)n2)c1` [Verbindung 44], the values for the IC50 with Fusarium proliferatum and with Fumonisin FB1 were 20 µM and 1.26 µM, respectively. Also, the chromatographic logP in the series “physchem” (pH 2.7) turned out to be 2.88.

`Cc1cccc(Nc2ncc(Cl)c(NCC(F)F)n2)c1` [Verbindung 45]: the IC50 in the series on Fusarium proliferatum was 5.01 µM; in the series on Fumonisin FB1, 1.58 µM. Moreover, in the series on Puccinia recondita (500 ppm), the Wirkungsgrad is listed as ≥ 70%. This compound also gave a chromatographic logP in the series “physchem” (pH 2.7) of 2.27.

On to `O=Cc1cccc(Nc2ncc(Cl)c(NCC(F)(F)F)n2)c1` [Verbindung 46], for which the Wirkungsgrad with Alternaria solani (500ppm active compound, tomato, protective, evaluation 7 days after inoculation) was ≥ 70%; in the series with Puccinia recondita (setting [2]), ≥ 70%. For the same compound, the chromatographic logP in “physchem” (pH 7.8) came out at 2.67.

With `O=Cc1cccc(Nc2ncc(Cl)c(NCC(F)F)n2)c1` [Verbindung 47], in the series with Puccinia recondita (setting [2]), the Wirkungsgrad is reported as ≥ 70%. The compound further gave a chromatographic logP in “physchem” (pH 7.8) of 2.49.

Turning to `CN(C)C(=O)c1ccc(Nc2ncc(Cl)c(NCC(F)(F)F)n2)cc1` [Verbindung 48], the Wirkungsgrad in the series on Alternaria solani (168 h, 500 ppm) is given as ≥ 70%. The chromatographic logP in the series “physchem” (pH 2.7) was determined as 1.93.
